Consider nine compounds from patent US12492188B2, “1H-benzo[D]imidazole derivatives as TLR9 inhibitors for the treatment of fibrosis” (BRISTOL-MYERS SQUIBB COMPANY, priority 2020, dated 2025).

Where two headings read alike, the source gives them in different places.

Common to all, as to assay type: cell-based
One experiment has as its target T1, human TLR8 (Homo sapiens, UniProt Q9NR97).
T1 construct: host or cells: HEK-Blue cells (HEK293-derived reporter line)
T1 sequence (Q9NR97 27-1041): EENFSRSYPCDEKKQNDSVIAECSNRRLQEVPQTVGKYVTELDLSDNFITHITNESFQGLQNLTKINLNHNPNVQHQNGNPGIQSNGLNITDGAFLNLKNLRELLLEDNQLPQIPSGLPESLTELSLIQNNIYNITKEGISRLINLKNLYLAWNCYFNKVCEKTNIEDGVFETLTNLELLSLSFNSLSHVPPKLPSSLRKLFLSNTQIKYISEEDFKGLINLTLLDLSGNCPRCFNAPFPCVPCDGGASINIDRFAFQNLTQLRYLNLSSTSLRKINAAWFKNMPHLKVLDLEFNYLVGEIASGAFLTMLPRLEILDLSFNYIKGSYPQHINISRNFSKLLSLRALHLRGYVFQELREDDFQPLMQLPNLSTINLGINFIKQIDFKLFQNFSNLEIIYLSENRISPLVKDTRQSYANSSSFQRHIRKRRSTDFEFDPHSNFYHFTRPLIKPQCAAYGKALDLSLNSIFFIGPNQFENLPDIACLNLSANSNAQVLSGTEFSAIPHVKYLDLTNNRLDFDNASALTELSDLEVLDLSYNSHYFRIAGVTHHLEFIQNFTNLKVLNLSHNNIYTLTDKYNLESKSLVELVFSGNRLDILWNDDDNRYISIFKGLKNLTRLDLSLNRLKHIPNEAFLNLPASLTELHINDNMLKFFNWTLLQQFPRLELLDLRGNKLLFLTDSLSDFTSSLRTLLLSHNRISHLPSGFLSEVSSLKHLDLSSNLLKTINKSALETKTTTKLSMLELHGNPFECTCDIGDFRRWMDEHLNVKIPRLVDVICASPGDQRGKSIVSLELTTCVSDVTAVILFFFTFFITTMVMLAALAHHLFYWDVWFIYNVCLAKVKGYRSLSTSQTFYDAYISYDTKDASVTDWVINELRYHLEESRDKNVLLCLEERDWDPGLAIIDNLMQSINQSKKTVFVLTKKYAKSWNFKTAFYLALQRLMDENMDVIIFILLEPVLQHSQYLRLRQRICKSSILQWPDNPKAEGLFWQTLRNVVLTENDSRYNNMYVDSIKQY
In words: TLR8 inhibition reporter assay (HEK-Blue cells, secreted embryonic alkaline phosphatase reporter). Particulars: HEK-Blue cells overexpressing human TLR8, stimulated with R848 15.9 μM; read-out: TLR 8 IC50. The essentials: (§1)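 Steps: seed receptor-specific HEK-Blue cells; add compound, 0.05 nM–50 μM; wait 30 min at room temperature; add final gardiquimod 7.5 μM, R848 15.9 μM or ODN2006 5 nM for TLR7, TLR8 or TLR9; incubate 22 h at 37 °C; detect NF-κB/AP-1-driven SEAP.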

A further experiment deals with T2, human TLR9 (Homo sapiens, UniProt Q9NR96).
T2 construct: host or cells: HEK-Blue cells (HEK293-derived reporter line)
T2 sequence (Q9NR96 26-1032): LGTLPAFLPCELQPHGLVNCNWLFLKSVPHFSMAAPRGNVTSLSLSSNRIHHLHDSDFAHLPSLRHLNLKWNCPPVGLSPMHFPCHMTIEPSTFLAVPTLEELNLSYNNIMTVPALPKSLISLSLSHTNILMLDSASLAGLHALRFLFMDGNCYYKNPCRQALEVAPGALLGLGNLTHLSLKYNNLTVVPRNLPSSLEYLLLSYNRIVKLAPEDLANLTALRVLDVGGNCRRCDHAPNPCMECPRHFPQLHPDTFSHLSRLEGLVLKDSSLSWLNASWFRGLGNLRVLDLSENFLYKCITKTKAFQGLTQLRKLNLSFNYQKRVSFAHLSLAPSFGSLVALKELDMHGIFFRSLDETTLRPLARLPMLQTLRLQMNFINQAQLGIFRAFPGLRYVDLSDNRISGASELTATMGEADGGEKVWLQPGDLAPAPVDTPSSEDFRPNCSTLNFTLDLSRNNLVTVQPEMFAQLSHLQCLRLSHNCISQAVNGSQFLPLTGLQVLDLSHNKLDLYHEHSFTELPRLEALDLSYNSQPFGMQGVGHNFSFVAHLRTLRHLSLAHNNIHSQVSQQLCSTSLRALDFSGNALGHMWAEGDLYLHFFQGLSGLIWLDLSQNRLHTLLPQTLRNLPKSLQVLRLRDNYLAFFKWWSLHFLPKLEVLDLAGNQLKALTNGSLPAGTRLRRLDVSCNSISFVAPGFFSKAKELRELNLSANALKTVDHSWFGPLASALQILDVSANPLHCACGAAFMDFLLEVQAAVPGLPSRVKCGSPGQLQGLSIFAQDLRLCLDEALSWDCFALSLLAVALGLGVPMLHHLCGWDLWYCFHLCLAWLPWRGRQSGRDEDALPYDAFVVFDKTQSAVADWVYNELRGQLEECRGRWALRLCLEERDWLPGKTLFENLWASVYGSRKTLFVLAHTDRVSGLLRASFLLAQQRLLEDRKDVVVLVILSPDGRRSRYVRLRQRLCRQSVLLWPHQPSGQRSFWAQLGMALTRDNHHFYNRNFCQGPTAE
The experiment is described as follows: TLR9 inhibition reporter assay (HEK-Blue cells, secreted embryonic alkaline phosphatase reporter). The method, boiled down:
as §1

A further experiment addresses T3, human TLR7 (Homo sapiens, UniProt Q9NYK1).
T3 construct: host or cells: HEK-Blue cells (HEK293-derived reporter line)
T3 sequence (Q9NYK1 27-1049): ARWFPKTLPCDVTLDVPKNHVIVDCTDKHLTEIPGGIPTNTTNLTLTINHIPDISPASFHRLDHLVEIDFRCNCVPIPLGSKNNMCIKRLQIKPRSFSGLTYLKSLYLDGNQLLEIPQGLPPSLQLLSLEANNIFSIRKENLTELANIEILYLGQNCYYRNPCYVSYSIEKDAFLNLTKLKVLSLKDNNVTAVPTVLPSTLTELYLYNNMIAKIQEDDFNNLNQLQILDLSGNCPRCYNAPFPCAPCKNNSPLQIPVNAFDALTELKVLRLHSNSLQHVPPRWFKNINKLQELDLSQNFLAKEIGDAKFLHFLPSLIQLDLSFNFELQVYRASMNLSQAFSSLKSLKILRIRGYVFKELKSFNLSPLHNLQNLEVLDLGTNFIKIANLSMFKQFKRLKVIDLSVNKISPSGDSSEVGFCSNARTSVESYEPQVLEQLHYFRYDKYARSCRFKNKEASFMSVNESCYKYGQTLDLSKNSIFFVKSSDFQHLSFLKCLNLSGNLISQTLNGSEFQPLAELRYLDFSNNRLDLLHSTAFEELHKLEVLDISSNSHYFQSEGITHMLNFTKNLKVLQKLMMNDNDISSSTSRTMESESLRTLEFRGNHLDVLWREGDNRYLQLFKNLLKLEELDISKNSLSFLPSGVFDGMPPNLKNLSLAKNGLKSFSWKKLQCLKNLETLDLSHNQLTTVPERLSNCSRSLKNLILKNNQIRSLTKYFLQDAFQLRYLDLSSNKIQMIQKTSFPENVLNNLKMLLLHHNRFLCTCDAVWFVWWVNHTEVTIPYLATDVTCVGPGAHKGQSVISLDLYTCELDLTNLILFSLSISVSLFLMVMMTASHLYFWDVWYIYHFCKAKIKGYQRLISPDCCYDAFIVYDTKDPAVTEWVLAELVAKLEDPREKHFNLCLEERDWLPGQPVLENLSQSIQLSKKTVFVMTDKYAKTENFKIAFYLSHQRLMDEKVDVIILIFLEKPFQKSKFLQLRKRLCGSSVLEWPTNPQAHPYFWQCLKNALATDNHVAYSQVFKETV
In words: TLR7 inhibition reporter assay (HEK-Blue cells, secreted embryonic alkaline phosphatase reporter). Particulars: HEK-Blue cells overexpressing human TLR7, stimulated with gardiquimod 7.5 μM; read-out: TLR 7 IC50. The method, boiled down: as §1

Setting [1] is: HEK-Blue cells overexpressing human TLR9, stimulated with ODN2006 5 nM, 22 hour incubation, reporter readout.
Setting [2] is: HEK-Blue cells overexpressing human TLR9, stimulated with ODN2006 5 nM, read-out: TLR 9 IC50.

With `CC(C)N1CCCC(N2CCC(c3ccc4nc(-c5ccc(S(C)(=O)=O)cc5)n(C)c4c3F)CC2)CC1` (single isomer, unassigned) [Example 114, 7-fluoro-6-(1-(1-isopropylazepan-4-yl)piperidin-4-yl)-1-methyl-2-(4-(methylsulfonyl)phenyl)-1H-benzo[d]imidazole], the IC50 was 16.7 µM on human TLR8, 0.013 µM on human TLR9 (setting [1]) and greater than 50 µM at human TLR7.
On the same counts, the results for `CC(C)N1C2CCC1CC(N1CCC(c3cc(F)c4nc(-c5ccc(S(C)(=O)=O)cc5)n(C5CC5)c4c3)CC1)C2` (single isomer, unassigned) [Example 116, 1-cyclopropyl-4-fluoro-6-(1-(8-isopropyl-8-azabicyclo[3.2.1]octan-3-yl)piperidin-4-yl)-2-(4-(methylsulfonyl)phenyl)-1H-benzo[d]imidazole] are greater than 50 µM, 0.051 µM and 3.5 µM.
In the case of `CC(C)N1C2CCC1CC(N1CCC(c3cc(F)c4nc(-c5ccc(S(C)(=O)=O)cc5)n(C5CC5)c4c3)CC1)C2` (single isomer, unassigned) [Example 117, 1-cyclopropyl-4-fluoro-6-(1-(8-isopropyl-8-azabicyclo[3.2.1]octan-3-yl)piperidin-4-yl)-2-(4-(methylsulfonyl)phenyl)-1H-benzo[d]imidazole], the 50% inhibitory concentration (IC50) is greater than 50 µM on human TLR8, 0.071 µM against human TLR9 (setting [1]) and 2.2 µM at human TLR7.
As to `Cc1cc(C2CCN(C3CC4CCC(C3)N4C3CCC3)CC2)cc2c1nc(-c1ccc(S(C)(=O)=O)c(F)c1)n2C` (single isomer, unassigned) [Example 124, 6-(1-(8-cyclobutyl-8-azabicyclo[3.2.1]octan-3-yl)piperidin-4-yl)-2-(3-fluoro-4-(methylsulfonyl)phenyl)-1,4-dimethyl-1H-benzo[d]imidazole], the 50% inhibitory concentration (IC50) on human TLR8 is greater than 50 µM; against human TLR9 (setting [1]) it was 0.58 µM; at human TLR9 (setting [2]) it was 0.577 µM; on human TLR7, 3.1 µM.
With `Cc1cc(C2CCN(C3CC4CCC(C3)N4C3CCC3)CC2)cc2c1nc(-c1ccc(S(C)(=O)=O)cc1)n2C` (single isomer, unassigned) [Example 152, 6-(1-(8-cyclobutyl-8-azabicyclo[3.2.1]octan-3-yl)piperidin-4-yl)-1,4-dimethyl-2-(4-(methylsulfonyl)phenyl)-1H-benzo[d]imidazole], the IC50 was greater than 25 µM on human TLR8, 0.084 µM against human TLR9, 0.084 µM on human TLR9 (setting [2]) and 14.7 µM at human TLR7.
Take `Cc1cc(C2CCN(C3CC4CCC(C3)N4C3CCC3)CC2)cc2c1nc(-c1ccc(S(C)(=O)=O)cc1)n2C` (single isomer, unassigned) [Example 153, 6-(1-(8-cyclobutyl-8-azabicyclo[3.2.1]octan-3-yl)piperidin-4-yl)-1,4-dimethyl-2-(4-(methylsulfonyl)phenyl)-1H-benzo[d]imidazole]: the IC50 at human TLR8 was greater than 25 µM; against human TLR9, 0.12 µM; on human TLR9 (setting [2]) it was 0.0123 µM; on human TLR7 it was 14.3 µM.
In the same order, the values of `Cc1cc(C2CCN(C3CC4CCC(C3)N4CC3CC3)CC2)cc2c1nc(-c1ccc(S(C)(=O)=O)cc1)n2C` (single isomer, unassigned) [Example 154, 6-(1-(8-(cyclopropylmethyl)-8-azabicyclo[3.2.1]octan-3-yl)piperidin-4-yl)-1,4-dimethyl-2-(4-(methylsulfonyl)phenyl)-1H-benzo[d]imidazole] are greater than 25 µM, 0.03 µM, 0.03 µM and 9 µM.
In the same order, the values of `Cc1cc(C2CCN(C3CC4CCC(C3)N4CC3CCC3)CC2)cc2c1nc(-c1ccc(S(C)(=O)=O)cc1)n2C` (single isomer, unassigned) [Example 156, 6-(1-(8-(cyclobutylmethyl)-8-azabicyclo[3.2.1]octan-3-yl)piperidin-4-yl)-1,4-dimethyl-2-(4-(methylsulfonyl)phenyl)-1H-benzo[d]imidazole] are greater than 25 µM, 0.031 µM, 0.031 µM and 8.9 µM.
In the same order, the values of `Cc1cc(C2CCN(C3CC4CCC(C3)N4C3COC3)CC2)cc2c1nc(-c1ccc(S(C)(=O)=O)cc1)n2C` (single isomer, unassigned) [Example 158, 1,4-dimethyl-2-(4-(methylsulfonyl)phenyl)-6-(1-(8-(oxetan-3-yl)-8-azabicyclo[3.2.1]octan-3-yl)piperidin-4-yl)-1H-benzo[d]imidazole] are greater than 25 µM, 0.16 µM, 1.61 µM and greater than 25 µM.
